Measurements as given in patent US20140366440A1, “METHOD FOR PRODUCING CLONE SEEDLINGS” (OKAYAMA PREFECTURE, priority 2009, published 2014).

Experiments:
Assay in all cases: Rooting of shoots with wounded base in rooting medium containing oxidized glutathione
Type in all cases: in vivo, Eucalyptus globulus
E. globulus (Clone C) = settings: Example 16: 50 mg/L in medium
Experimental: (§1) A base of the shoot thus obtained was planted to a foaming phenolic resin porous supporter (Manufactured by Smithers-Oasis Company; Product name: Oasis). […] The base of the shoot was cultured for two months in carbon dioxide gas of 1000 ppm at a temperature of 25° C. under irradiation of red light having photosynthesis photon flux density of 51.3 μmol/m^2/S and having a wavelength component of 650 nm to 670 nm to a wavelength component of 450 nm to 470 nm at a ratio of 8.2:1.8. The culturing was carried out with a culture container, which was a cube container (maximum size of about 10 cm to 11.5 cm in length×10 cm to 11.5 cm in width×10.0 cm in height) having a shape whose bulge was slightly protruded. […] Carbon dioxide gas outside the culture container was allowed to enter the culture container through this carbon dioxide gas permeable membrane covering the opening. Accordingly, carbon dioxide gas concentration inside the culture container was about 1000 ppm due to the permeation of the carbon dioxide gas through the film covering the opening of the culture container. The culture container was irradiated with red light by use of a light irradiation device (Product name: CCFL unit, maker's name: Nippon Medical& Chemical Instruments CO., LTD.). Further, humidity in the culture container is adjusted by sealing the culture container with Parafilm.
(§2) Nine shoots were planted per culture container. A rooting rate was calculated from the number of test pieces of the shoot and the number of shoots (the number of rooted shoots) which had been rooted after the foliage was cultured for two months.

E. globulus (Clone D) = settings: Example 17: 50 mg/L in medium
Experimental: as §1, §2

E. globulus (Clone E) = settings: Example 18: 50 mg/L in medium
Experimental: as §1, §2

[1] = tested on: E. globulus (wild-type F); settings: Example 19: 50 mg/L in medium
Experimental: as §1, §2

oxidized glutathione
Rooting rate (%) (E. globulus (Clone C); 27 test pieces): 96.3% | Number of rooted shoots (E. globulus (Clone C); of 27 test pieces): 26 | Rooting rate (%) (E. globulus (Clone D); 18 test pieces): 88.9% | Number of rooted shoots (E. globulus (Clone D); of 18 test pieces): 16 | Rooting rate (%) (E. globulus (Clone E); 27 test pieces): 88.9% | Number of rooted shoots (E. globulus (Clone E); of 27 test pieces): 24 | Rooting rate (%) ([1]; 18 test pieces): 100.0% | Number of rooted shoots ([1]; of 18 test pieces): 18
